Measured values published in patent US20110190235A1, “BORON-CONTAINING SMALL MOLECULES AS ANTIPROTOZOAL AGENTS” (Anacor Pharmaceuticals, Inc., priority 2009, published 2011).
Read-outs that look alike come from different tables or passages of the source.

Experiments:
[1] = test system: bloodstream-form trypanosome T. brucei brucei 427 strain; experiment: Trypanosoma brucei brucei high-throughput in vitro drug sensitivity assay (resazurin); format: cell-based; details: Trypanosoma brucei, 72 h
[2] = L929 cytotoxicity evaluation (resazurin); format: cell-based; details: mouse, L929 mouse fibroblast cells; 72 hrs incubation; read-out: Cytotox L-929 IC50
Outline: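 Mouse L929 fibroblasts (1×10^4/mL seeding, attached overnight) were treated 72 h at 37 °C, 5% CO2 with serially diluted compounds in DMSO in D-MEM/10% FBS. Viability read by resazurin fluorescence after 3–4 h (ex 544/em 590 nm); IC50 from sigmoidal fits of single data points.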

CC1(C)OB(O)c2cc(NC(=O)c3ccc(F)cc3C(F)(F)F)ccc21 [compound 82]
IC50 ([1]; read-out: T. b. brucei IC50 (nM)): 556 nM
IC50 ([1]; read-out: T.b. brucei IC50 (ug/mL)): 0.204 µg/mL
IC50 at 72 h [2]: > 10 µg/mL
